According to patent US12551475B2, “Methods and compositions for treating RNA viral infections” (Model Medicines, Inc., priority 2020, dated 2026):
Counter-ions that a name gives are not always drawn. Like-named read-outs stand apart in the source and are kept apart here.

Assays:
[1] = biological target: lysophosphatidic acyl transferase (LPAAT); conditions: cytokine-activated LPAAT; read-out: IC50 (generation of phosphatidic acid); cited from earlier work
SARS-CoV-2 [2] = test: microbe, parasite or virus in culture
SARS-CoV-2 [3] = system: SARS-CoV-2
[4] = Uninfected host cell cytotoxicity counter screen; format: cell-based, human; conditions: human, uninfected HeLa-ACE2 cells; uninfected HeLa-ACE2, 24 h
Experimental: Compounds were acoustically transferred into 1,536-well clear plates (Greiner Part. No. 789091). HeLa-ACE2 cells were maintained as described for the infection assay and seeded in the assay-ready plates at 400 cells/well in DMEM with 2% FBS and plates were incubated for 24 hours at 37 5% CO2. To assess cell viability, the Image-iT DEAD green reagent (Thermo Fisher) was used according to manufacturer instructions. Cells were fixed with 4% paraformaldehyde, and counterstained with DAPI. Fixed cells were imaged using the ImageXpress Micro Confocal High-Content Imaging System (Molecular Devices) with a 10× objective, and total live cells per well quantified in the acquired images using the Live Dead Application Module (MetaXpress).
Image analysis was carried out with MetaXpress (version 6.5.4.532). Primary in vitro screen and the host cell cytotoxicity counter screen data were uploaded to Genedata Screener, Version 16.0.3-Standard. Data were normalized to neutral (DMSO) […] inhibitor controls (2.5 μM remdesivir for antiviral effect and 10 μM puromycin for infected host cell toxicity). For the uninfected host cell cytotoxicity counter screen 40 μM puromycin (Sigma) was used as the positive control. For dose response experiments compounds were tested in technical triplicates on different assay plates and dose curves were fitted with the four parameter Hill Equation. Technical replicate data were analyzed using median condensing.

S. aureus = conditions: various strains; cited from earlier work
S. viridans = conditions: various strains; cited from earlier work
S. epidermidis = conditions: various strains; cited from earlier work
S. pneumoniae = conditions: various strains; cited from earlier work
[5] = system: B-RAFV^600E-expressing A375P melanoma cells; conditions: cited from earlier work
[6] = system: wild-type B-RAF-expressing human foreskin fibroblasts; conditions: cited from earlier work
cancer cell lines = conditions: cited from earlier work
[7] = biological target: 3CL Protease (SARS-CoV-2) (Severe acute respiratory syndrome coronavirus 2, UniProt P0DTD1); test: 3CL Protease (untagged, SARS-CoV-2) activity assay; format: biochemical
Text: The 3CL Protease Activity Assay described in this example is designed to measure 3CL Protease activity for screening and profiling applications, in a homogeneous assay with no time-consuming washing steps. The assay can be performed in a 96-well format, with purified untagged 3CL Protease, fluorogenic substrate, and 3CL Protease assay buffer for 100 enzyme reactions. 3CL inhibitor GC376 was included as a positive control. See https://bpsbioscience.com/3cl-protease-intagged-sars-cov-2-assay-kit-78042.
3CL Protease (SARS-CoV-2), no tag*; 3CL Protease Substrate (10 mM); 3CL Protease Assay Buffer; GC376, MW=507.5; 0.5 M DTT; Black, low binding microtiter plate; Plate sealing film. Fluorescent microplate reader capable of reading exc/em=360 nm/460 nm
All Samples and Controls were Tested in Duplicate.
• 1) Added 0.5 M DTT to 3CL Protease Assay Buffer so final DTT concentration was 1 mM. (e.g., added 10 μl of 0.5 M DTT to 5 ml assay buffer) (DTT was added just before use. Enough DTT-containing buffer as required for the assay was prepared. Remaining assay buffer was stored at −20° C.). • 2) Thaw 3CL Protease was thawed on ice. Upon first thaw, tube containing enzyme was briefly spun to recover the full content of the tube. Aliquoted 3CL Protease into single use aliquots. Stored remaining undiluted enzyme in aliquots at −80° C. • 3) Diluted 3CL Protease in Assay buffer (with 1 mM DTT) at 0.5 ng/μl (15 ng per reaction). • 4) Added 30 μl diluted 3CL Protease enzyme solution to wells designated as “Positive Control”, “Inhibitor Control” and “Test Sample”. Added 30 μl Assay buffer (with 1 mM DTT) to the “Blank” wells.
• 5) Diluted 50 μg GC376 in 200 μl water to obtain a 500 μM solution. Aliquoted and stored remaining solution in aliquots at −80° C. Added 10 μl GC376 (500 μM) to the wells labeled “Inhibitor Control”. • 6) Prepared the inhibitor solution.
(If the inhibitor compound was dissolved in DMSO, made a 100-fold higher concentration of the compound than the highest concentration tested in DMSO. Then made a 20-fold dilution in 1× assay buffer (at this step the compound concentration is 5-fold higher than the final concentration)).
If the inhibitor compound is dissolved in water, made a solution of the compound 5-fold higher than the final concentration in 3CL Protease assay buffer (with 1 mM DTT). For example, diluting 50 μg GC376 in 200 μl water (step 5) creates a 500 μM solution. Adding 10 μl to the assay (final volume 50 μl) results in a 100 μM final concentration.
7) Added 10 μl inhibitor to each well designated “Test Sample”. Added 10 μl 1× assay buffer or 5% DMSO in water (depending on which inhibitor solution is used) to “Blank” and “Positive Control” wells. • 8) Preincubated enzyme with the inhibitor for 30 min at room temperature with slow shaking. • 9) Diluted 10 mM 3CL Protease substrate 1:50 in assay buffer with DTT, to make a 200 μM solution. Diluted only enough as was required for the assay. • 10) Started reaction by adding 10 μl of the substrate solution to each well (Final concentration of the 3CL Protease substrate in a 50 μl reaction was 40 μM). • 11) Incubated for 4 hours at room temperature with slow shaking. Sealed the plate with the plate sealer. Measured the fluorescence intensity in a microtiter plate-reading fluorimeter capable of excitation at a wavelength 360 nm and detection of emission at a wavelength 460 nm. The fluorescence intensity can also be measured kinetically. “Blank” value was subtracted from all other values. Data Analysis
3CL Protease activity assays were performed in duplicates. The fluorescence data were analyzed using the computer software, Graphpad Prism. In the absence of the compound, the fluorescence (Ft) in each data set was defined as 100% activity. In the absence of the 3CL Protease, the fluorescence (Fb) in each data set was defined as 0% activity. […]

HeLa cells = conditions: read-out: IC50 (apoptosis); cited from earlier work
thymocytes = conditions: read-out: IC50 (apoptosis); cited from earlier work
Renal 1983 cell line = conditions: read-out: IC50 (antitumor activity in vitro); cited from earlier work
MCF-7 cell line = conditions: read-out: IC50 (antitumor activity in vitro); cited from earlier work
[8] = in vivo; cited from earlier work
SARS-CoV-2 [9] = conditions: ReFRAME screen, same methods (Bakowski et al, 2020); cited from earlier work
[10] = Severe acute respiratory syndrome coronavirus 2, HeLa-ACE2, 24 h

C[C@@H](O)CCCCn1c(=O)c2c(ncn2C)n(C)c1=O [(R)-LSF, 3,7-dihydro-1-[(5R)-5-hydroxyhexyl]-3,7-dimethyl-1H-purine-2,6-dione]
IC50 [1]: 0.6 µM

Cc1c2c(nn1C)CSCc1cc(n(C)n1)CSc1cc(c3ccccc3c1)OCCCc1c(C(=O)O)n(C)c3c-2c(Cl)ccc13 [AZD-5991]
EC50 (SARS-CoV-2 [2]; [10]): 8.81 µM | SI (selectivity index, CC50/EC50) (SARS-CoV-2 [3]): 0.06 | activity in the HeLa-ACE2 cell-based SARS-CoV-2 assay (in words) (SARS-CoV-2 [3]): demonstrated activity | CC50 at 24 h [4]: 0.527 µM

CCC[C@@H]1C[C@@H](C(=O)N[C@@H]([C@H]2O[C@H](SC)[C@H](O)[C@@H](O)[C@H]2O)[C@H](C)Cl)N(C)C1 [Clindamycin, methyl 7-chloro-6,7,8-trideoxy-6-[[[(2S,4R)-1-methyl-4-propyl-2-pyrrolidinyl]carbonyl]amino]-1-thio-L-threo-α-D-galacto-octopyranoside]
MIC (S. aureus): 0.04 to 1.6 µg/mL | MIC (S. viridans): 0.005 to 0.2 µg/mL | MIC (S. epidermidis): 0.1 to 0.2 µg/mL | MIC (S. pneumoniae): 0.002 to 0.1 µg/mL

CC(C)(C)c1nc(-c2cccc(NS(=O)(=O)c3c(F)cccc3F)c2F)c(-c2ccnc(N)n2)s1 [Dabrafenib, N-[3-[5-(2-amino-4-pyrimidinyl)-2-(1,1-dimethylethyl)-4-thiazolyl]-2-fluorophenyl]-2,6-difluorobenzenesulfonamide]
EC200 (caspase-3/7 activation) [5]: 71 nM | EC200 (caspase-3/7 activation) [6]: > 10,000 nM | GI50 (cancer cell lines; 16 cancer cell lines expressing mutant B-RAFV600E): < 0.2 µM | GI50 (cancer cell lines; 19 cell lines expressing wild-type Ras and RAF): < 7 µM | GI50 (cancer cell lines; five cell lines expressing other B-RAF mutants): < 0.03 µM | GI50 (cancer cell lines; four B-RAFV600E lines, 133 wild-type Ras and Raf lines, 18 mutant Ras lines not inhibited): > 10 µM

COc1ccc2c3c1O[C@H]1C[C@@H](O)C=C[C@@]31CCN(C)C2 [Galantamine, (4aS,6R,8aS)-4a,5,9,10,11,12-hexahydro-3-methoxy-11-methyl-6H-benzofuro[3a,3,2-ef][2]benzazepin-6-ol]
3CL Protease Activity (Fluorescence count) Repeat1 ([7]; Galantamine 0.009 μM): 759 | 3CL Protease Activity (Fluorescence count) Repeat2 ([7]; Galantamine 0.009 μM): 768 | 3CL Protease Activity (Fluorescence count) Repeat1 ([7]; Galantamine 0.018 μM): 746 | 3CL Protease Activity (Fluorescence count) Repeat2 ([7]; Galantamine 0.018 μM): 752 | 3CL Protease Activity (Fluorescence count) Repeat1 ([7]; Galantamine 0.070 μM): 785 | 3CL Protease Activity (Fluorescence count) Repeat2 ([7]; Galantamine 0.070 μM): 783 | 3CL Protease Activity (Fluorescence count) Repeat1 ([7]; Galantamine 0.14 μM): 737 | 3CL Protease Activity (Fluorescence count) Repeat2 ([7]; Galantamine 0.14 μM): 760 | 3CL Protease Activity (Fluorescence count) Repeat1 ([7]; Galantamine 0.28 μM): 761 | 3CL Protease Activity (Fluorescence count) Repeat2 ([7]; Galantamine 0.28 μM): 797 | 3CL Protease Activity (Fluorescence count) Repeat1 ([7]; Galantamine 4.5 μM): 593 | 3CL Protease Activity (Fluorescence count) Repeat2 ([7]; Galantamine 4.5 μM): 543 | activity at 0.009 µM ([7]; read-out: % Activity Repeat1): 98% | activity at 0.018 µM ([7]; read-out: % Activity Repeat1): 96% | activity at 0.07 µM ([7]; read-out: % Activity Repeat1): 102% | activity at 0.14 µM ([7]; read-out: % Activity Repeat1): 95% | activity at 0.28 µM ([7]; read-out: % Activity Repeat1): 98% | activity at 4.5 µM ([7]; read-out: % Activity Repeat1): 74% | activity at 0.009 µM ([7]; read-out: % Activity Repeat2): 99% | activity at 0.018 µM ([7]; read-out: % Activity Repeat2): 97% | activity at 0.07 µM ([7]; read-out: % Activity Repeat2): 102% | activity at 0.14 µM ([7]; read-out: % Activity Repeat2): 98% | activity at 0.28 µM ([7]; read-out: % Activity Repeat2): 104% | activity at 4.5 µM ([7]; read-out: % Activity Repeat2): 66% | effect on 3CL Protease activity (in words) ([7]; test range 0.009-4.5 μM): inhibited 3CL Protease activity

COc1ccc2c(c1OC)C(=O)O[C@@H]2[C@H]1c2c(cc3c(c2OC)OCO3)CCN1C [Noscapine, (3S)-6,7-dimethoxy-3-[(5R)-5,6,7,8-tetrahydro-4-methoxy-6-methyl-1,3-dioxolo[4,5-g]isoquinolin-5-yl]-1(3H)-isobenzofuranone, monohydrochloride]
IC50 (HeLa cells): 25 µM | IC50 (thymocytes): 10 µM | IC50 (Renal 1983 cell line): 39.1 µM | IC50 (MCF-7 cell line): 42.3 µM

CCC(CC)COC(=O)[C@H](C)N[P@](=O)(OC[C@H]1O[C@@](C#N)(c2ccc3c(N)ncnn23)[C@H](O)[C@@H]1O)Oc1ccccc1 [Remdesivir]
EC50 (SARS-CoV-2 [2]; [10]): 0.13 µM | increase in EC50 from MOI=1 to MOI=26 (SARS-CoV-2 [3]): 2.7 fold | half-life (t 1/2) [8]: 1 h

Nc1ncnc2c1nc(Cl)n2[C@@H]1O[C@@H]2COP(=O)(O)O[C@H]2[C@H]1O [Tocladesine, 8-chloroadenosine 3′,5′-monophosphate]
EC50 (SARS-CoV-2 [2]; [10]): > 9.59 µM | SI (selectivity index, CC50/EC50) (SARS-CoV-2 [3]): > 4.15 | activity in the HeLa-ACE2 cell-based SARS-CoV-2 assay (in words) (SARS-CoV-2 [3]): active against COVID-19 | activity in the HeLa-ACE2 cell-based SARS-CoV-2 assay (in words) (SARS-CoV-2 [3]; listed as tocladesine): demonstrated activity | CC50 at 24 h [4]: > 39.8 µM

Cc1cccc(/C=N/Nc2cc(N3CCOCC3)nc(OCCc3ccccn3)n2)c1 [apilimod]
Emax (SARS-CoV-2 [2]; Severe acute respiratory syndrome coronavirus 2, HeLa-ACE2, read-out: maximal efficacy (uninfected cells at the highest effective concentrations)): 85 to 90% | increase in EC50 from MOI=1 to MOI=26 (SARS-CoV-2 [3]): 3.7 fold

COc1ccc(C[C@H](N)C(=O)N[C@H]2[C@@H](O)[C@H](n3cnc4c(N(C)C)ncnc43)O[C@@H]2CO)cc1 [puromycin]
EC50 (SARS-CoV-2 [2]; Severe acute respiratory syndrome coronavirus 2, HeLa-ACE2, read-out: EC50 (total cell numbers per well, compound toxicity in the context of infection)): 0.547 ± 0.027 µM

O=C(c1ccc(OCCN2CCCCC2)cc1)c1c(-c2ccc(O)cc2)sc2cc(O)ccc12 [raloxifene]
EC50 (SARS-CoV-2 [9]): 4.13 µM
